Data as given in PubChem BioAssay (NCI).
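Assay format: 96-well plates, 48-hour exposure. The concentration for 50% growth inhibition is given as GI50. At the TGI there is no net growth.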

Key:
Assay in all cases: NCI tumour cell line growth inhibition, 48 h
TK-10 renal = tested on: TK-10 renal
HOP-92 NSCLC = tested on: HOP-92 NSCLC
CCRF-CEM leukemia = tested on: CCRF-CEM leukemia
MALME-3M melanoma = tested on: MALME-3M melanoma
OVCAR-3 ovarian = tested on: OVCAR-3 ovarian
A549 NSCLC = tested on: A549 NSCLC
M14 melanoma = tested on: M14 melanoma
SN12C renal = tested on: SN12C renal
T-47D breast = tested on: T-47D breast
MOLT-4 leukemia = tested on: MOLT-4 leukemia

SMILES | GI50 (TK-10 renal) [µM] | TGI (TK-10 renal) [µM] | GI50 (HOP-92 NSCLC) [µM] | TGI (HOP-92 NSCLC) [µM] | GI50 (CCRF-CEM leukemia) [µM] | TGI (CCRF-CEM leukemia) [µM] | GI50 (MALME-3M melanoma) [µM] | TGI (MALME-3M melanoma) [µM] | GI50 (OVCAR-3 ovarian) [nM] | TGI (OVCAR-3 ovarian) [µM] | GI50 (A549 NSCLC) [nM] | TGI (A549 NSCLC) [µM] | GI50 (M14 melanoma) [nM] | TGI (M14 melanoma) [µM] | GI50 (SN12C renal) [µM] | TGI (SN12C renal) [µM] | GI50 (T-47D breast) [µM] | TGI (T-47D breast) [µM] | GI50 (MOLT-4 leukemia) [µM] | TGI (MOLT-4 leukemia) [µM]
Cc1nn(C)c(COc2ccc(N3CCN(S(=O)(=O)N(C)C)CC3)cc2)c1-c1cccc2c(CCCOc3cccc4ccccc34)c(C(=O)O)n(CCN3CCOCC3)c12 | 3.47 | 15.5 | 2.01 | 6.56 | 4.19 | > 100 | 3.15 | 15.5 | 2720 | 8.57 | 4490 | 16.9 | 2280 | 5.32 | 3.25 | 12.4 | 2.4 | 9.38 | 3.52 | 16.5
Cc1ccc(C(=O)NC2CCC2)cc1-c1ccc(C(=O)NCC2CC2)cc1 | > 25 | > 25 | > 21.3 | > 25 | > 25 | > 25 | > 25 | > 25 | > 25000 | > 25 | > 25000 | > 25 | > 25000 | > 25 | > 25 | > 25 | 12.9 | > 25 | > 25 | > 25
Nc1c(C(=O)c2cccc(-c3cccnc3)c2)cnn1-c1ccc(F)cc1F | 6.43 | > 25 | 1.94 | 17.4 | 10.2 | > 25 | 2.26 | > 20.9 | 3930 | > 25 | 2050 | > 25 | 2710 | > 25 | 7.53 | > 25 | 1.57 | > 25 | 7.85 | > 25
COc1ccc(/C=C(\C(=O)NCc2cccnc2)S(=O)(=O)c2ccccc2)cc1OC | 5.57 | 18.1 | 2.59 | 7.33 | 2.26 | 15.8 | 3.06 | 11.9 | 3220 | 11.4 | 2860 | 13.4 | 2480 | 8.59 | 2.49 | 9.15 | 2.59 | 10.8 | 3.35 | 89.1
COC(=O)Nc1nc2ccc(Oc3cccc(NC(=O)Nc4cc(C(F)(F)F)ccc4F)c3)cc2[nH]1 | > 25 | > 25 | 2.94 | > 22.2 | 10.1 | > 25 | 6.04 | > 25 | 14000 | > 25 | 16000 | > 25 | 7670 | > 25 | 15.1 | > 25 | 8.64 | > 25 | 15.8 | > 25
O=C1c2ccc3c4c(ccc(c24)C(=O)N1CCCNCc1ccccc1Cl)C(=O)N(CCCNCc1ccccc1Cl)C3=O | 0.179 | 0.724 | 0.728 | 2.37 | 0.215 | 50 | 0.315 | 1.05 | 132 | 0.345 | 230 | 0.833 | 200 | 0.685 | 0.0995 | 0.206 | 0.787 | 2.17 | 0.168 | 0.722
C#CCNCCN1C(=O)c2ccc3c4c(ccc(c24)C1=O)C(=O)N(CCNCC#C)C3=O | 7.38 | 23.8 | 7.39 | 22.9 | 5.19 | 25 | 0.903 | 3.14 | 1520 | 4.22 | 2690 | 11.6 | 5520 | 12.6 | 2.62 | 9.32 | 4.16 | 14.8 | 3.54 | 16.7
CCc1ccc2c(c1)C(=O)c1c-2n(CCCN=[N+]=[N-])c(=O)c2cc(OC)c(OC)cc12 | 44.2 | > 100 | 23.8 | 94.8 | > 100 | > 100 | > 100 | > 100 | > 100000 | > 100 | > 100000 | > 100 | > 100000 | > 100 | > 100 | > 100 | > 100 | > 100 | > 100 | > 100
C=C1c2ccoc2C[C@H]2[C@H]1CC[C@@]1(O)[C@@](C)(C(=O)OC)CCC[C@]21C | > 100 | > 100 | 14.6 | 57.1 | 23.5 | 60.1 | 22.1 | 56.2 | 17400 | 43.3 | 25500 | > 100 | 29300 | 82.6 | 16.9 | 34 | 27.3 | > 100 | 15.6 | 43.3
Cc1[nH]c(=O)nc(Nc2ccc(Cl)cc2)c1C(=O)N1CCN(CCO)CC1 | 77.7 | > 100 | 28.7 | 71.6 | > 100 | > 100 | 29.9 | > 100 | > 100000 | > 100 | > 100000 | > 100 | > 100000 | > 100 | > 100 | > 100 | 84.2 | > 100 | > 100 | > 100
Cc1nn(-c2ccc([N+](=O)[O-])cc2)c2ncnc(N/N=C/c3ccccc3O)c12 | 0.942 | 7.78 | 0.806 | 4.63 | 0.222 | > 100 | 0.62 | 3.95 | 262 | 1.56 | 563 | 5.41 | 299 | 2.2 | 0.399 | 3.17 | 0.542 | 4.95 | 0.321 | > 100
CN1CCc2[nH]nc(-c3n[nH]c4c3CN(C)CC4)c2C1 |  | > 100 |  | > 100 |  | > 100 |  | > 100 |  | > 100 |  | > 100 |  | > 100 |  | > 100 |  | > 100 |  | > 100
Nc1c(C(=O)c2cccc(C#CCO)c2)cnn1-c1ccc(F)cc1 | > 25 | > 25 | > 13.2 | > 25 | > 25 | > 25 | > 25 | > 25 | > 25000 | > 25 | > 25000 | > 25 | > 25000 | > 25 | > 25 | > 25 | > 25 | > 25 | > 25 | > 25
Nc1ccccc1C#C/C=C\C#Cc1cccc(O)c1 | 8.73 | 29.7 | 11.9 | > 51.2 | 8.12 | > 44 | 11.3 | > 43.4 | 2730 | 14.7 | 2780 | 15.7 | 1300 | 5.65 | 2.66 | 19.6 | 7.3 | > 60.8 | 3.21 | 23.7
CN(C)CC1CCC2=C(C1=O)C(c1ccc(Cl)c(Cl)c1)C1=C(CCC(CN(C)C)C1=O)O2 (stereo not given) | 0.7 | 1.98 | 11.3 | 25.5 | 3.33 | 26.3 | 14.9 | 29.5 | 1600 | 5.89 | 16200 | 32.2 | 9350 | 23.4 | 14 | 30.2 | 2.05 | 7.9 | 5.18 | 22.1
N#CSCc1ccc(Cl)c(CSC#N)c1 | 14.5 | 46.6 | 0.25 | 6.51 | 0.103 | 23.6 | 9.8 | 37.8 | 165 | 18.1 | 1440 | > 58.4 | 75.9 | 14.8 | 0.482 | 40.7 | 15.7 | 51.8 | 0.109 | 53.5
